The results in this text go back to patent publication US9403786B2, “Anti-inflammatory compounds” (University of South Australia, priority 2009, dated 2016).

This test concerns TPA-induced mouse ear oedema. As to the kind of experiment: TPA-induced mouse ear oedema model. It is filed as in vivo, Male Balb/C mice. As to the method: Anti-inflammatory activity was measured in the mouse ear oedema model using 12-O-tetradeconoylphorbol-13-acetate (TPA) (Sigma) or croton oil as the inducer of inflammation (Sanchez, T and Moreno, J 1999, Role of leukocyte influx in tissue prostaglandin H synthase-2 overexpression induced by phorbol ester and arachidonic acid in skin, Biochemical Pharmacology, 58, 877-879.). Male Balb/C mice 7-9 weeks old and weighing 20-25 g were used. Mice were housed in cages at constant room temperature (20±2° C.) with access to food (standard rat/mouse pellet) and water ad libitum. A 12 hr day/night cycle was maintained in the animal holding facility (Reid building animal house, University of South Australia) and all experiments were carried out during the day phase.
Baseline measurements of ear thickness were measured using a digital micrometer (±0.001 mm, Mitutoyo, Japan) prior to the experiment. TPA (2.5 μg/ear), which was dissolved in acetone, was then applied in a volume of 20 μL to the inner surface of the right ear and 20 μL of acetone to the left ear as control. After thirty minutes the test samples, which were dissolved in 80% ethanol, were applied to the inner surface of the right ear and 80% ethanol on the left ear to the respective treatment groups. Betamethasone 17,21-dipropionate (Sigma) (0.9 μmol/ear) was used as a positive control. Multi-dose experiments were conducted over the range 0.005-1.83 μmol/ear. At 2 h, 4 h, 6 h, 8 h, 24 h and 48 h after the application, the ear thicknesses were measured using a digital micrometer. A non-treated control group to which only croton oil or TPA were applied was used as a measure of maximum inflammation achieved with percent inhibition of inflammation of test sample being calculated relative to this group. Following completion of the experiment, mice were euthanized by inhalation of isoflurane followed by cervical dislocation.

With “15,16-epoxy-8(α)-(benzoyloxy)methyl-cleroda-3,13(16), 14-trien-18-oic acid [Compound E]”, the anti-inflammatory activity result (TPA-induced mouse ear oedema model) was “significant anti-inflammatory activity”. Where the note is “dose of 0.91 μmol”, the maximum inhibition stood at 76.4±7.3%. Further, for the setting “doses lower than 1.83 μmol/ear”, the “effect at lower concentrations” value was “no observable effect”. The “activity when compared to TPA only control” value (highest dose tested 1.83 μmol/ear, p<0.05) is recorded as “some significant level of activity”.
